Assays:
[1] = tested on: hair matrix cells; conditions: topical 0.3 mg in 0.2 mL Ringer's solution on depilated mouse skin before fractionated irradiation; cited from earlier work
[2] = tested on: bacteria, yeast and mold; assay: USP 23 Antimicrobial Preservatives-Effectiveness test, overall; type: cell-based; conditions: each of the tested microorganisms, 28 day test
Experimental: WR-1065 was evaluated according to a protocol based on the “Antimicrobial Preservatives-Effectiveness” Test, outlined in the United States Pharmaeopeia, 23rd ed. (1995).
Prior to inoculation of the test article, a 1:10 dilution is prepared in diluent and 1.0 mL is plated. Additional serial dilutions are prepared and plated as necessary. Two separate sets are prepared as above. One set is prepared for bacteria counts, and one set is prepared for yeast/mold counts.
Enumeration of viable bacterial and fungal populations in the inoculated test article is conducted at 7, 14, 21 and 28 days post inoculation. At each time interval, a 1.0 g (or mL) specimen is removed from each inoculated specimen and plate counts are obtained by preparing serial dilutions in 9 mL tubes of diluent and plating aliquots from each dilution. Following incubation, plates are observed and the CFU's are enumerated. The number obtained is multiplied by the dilution factor to give the number of viable organisms per g (or mL) of test article at each time interval. At each time interval, the inoculated product is examined and any changes observed in the appearance of the test article during the challenge period are recorded. […]

[3] = Solubility of WR-1065 salts in various solvents; type: physicochemical; conditions: Water
Experimental: As mentioned above, salts of amifostine and related compounds are included within the scope of the invention. […] Several salts of WR-1065 were prepared, and their solubility in various solvents was measured.

| Compound | protection of hair matrix cells from radiation-induced injury [1] | preservative efficacy according to USP 23 criteria [2] | Est. Solubitity HPLC Assay ([3]; as salt) [mg/mL] | Est. Solubitity HPLC Assay ([3]; expressed as free base) [mg/mL] |
| --- | --- | --- | --- | --- |
| NCCCNCCS [WR-1065, S-2-(3-aminopropylamino) ethanethiol] | some effectiveness | effective preservative | – | – |
| Cl.Cl.NCCCNCCS [di-HCl] | – | – | 849 | 550 |
